Measured values reported in US8507660B2 (priority 2009, dated 2013).

Assay: Storage stability of sialyl phosphate donors
Format: physicochemical
Conditions: −20° C., several months
Method: The reaction was complete in 5 h to give a mixture of α- and β-anomers. The sialyl α-phosphate 2a and sialyl β-phosphate 2b can be easily separated by silica gel column chromatography and are both stable at −20° C. for several months.

CCCCOP(=O)(OCCCC)OC1(C(=O)OC)CC(OC(C)=O)[C@@H](NC(C)=O)C([C@H](OC(C)=O)[C@@H](COC(C)=O)OC(C)=O)O1 (stereo partly shown) [2a]
stability on storage: stable
